# Measurements reported in patent publication EP1935887A1, “Heterocyclic substituted carbonyl derivatives and their use as dopamine D3 receptor ligands” (Aventis Pharmaceuticals Inc., priority 2001, dated 2002).
# Target: T1, Cloned Human Dopamine D3 Receptors (Homo sapiens, UniProt P35462)
# T1 construct: expressed in transfected cells; membrane homogenate
# Experiment: [N-Methyl-3H]Spiroperidol binding to cloned human dopamine D3 receptors
# Settings: D3 Ki (nM)
# In short: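 [N-methyl-3H]spiroperidol binding is run in Tris buffer, pH 7.7. Receptor source is membranes of a stably transfected, high-expressing CHO clone carrying the human D3 gene, kept at -80°C in 10% DMSO.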
# T1 sequence (P35462 whole entry): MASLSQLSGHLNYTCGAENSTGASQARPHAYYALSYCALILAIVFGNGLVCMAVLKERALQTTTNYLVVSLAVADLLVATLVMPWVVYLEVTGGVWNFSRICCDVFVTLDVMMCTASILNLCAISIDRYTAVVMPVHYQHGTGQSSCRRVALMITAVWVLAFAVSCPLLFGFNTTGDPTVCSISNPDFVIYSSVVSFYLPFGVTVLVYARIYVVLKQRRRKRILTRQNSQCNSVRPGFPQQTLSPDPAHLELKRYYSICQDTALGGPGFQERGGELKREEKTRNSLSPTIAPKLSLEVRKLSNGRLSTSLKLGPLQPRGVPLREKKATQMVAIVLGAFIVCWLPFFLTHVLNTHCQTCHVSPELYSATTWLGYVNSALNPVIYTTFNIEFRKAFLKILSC
row,SMILES,Ki [nM]
1,CCC1CCC(NC(=O)C2CC2CN2CCC(c3nn(-c4ccc(C(F)(F)F)cc4)c4ccccc34)CC2)CC1 (stereo not drawn) [compound 830133],176
2,C[C@H]1CC[C@H](NC(=O)[C@@H]2C[C@H]2CN2CCN(c3noc4ccsc34)CC2)CC1 [compound 831083],3.2

# Same assay, conditions: Table 2; unit inferred; read-out: d3Ki
row,SMILES,Ki [nM]
1,CC1CCCC(NC(=O)CCCN2CCN(c3csc4cc(F)ccc34)CC2CCCc2ccccc2)C1 (stereo not drawn) [compound 827108],302
2,CN(C(=O)CCCN1CCN(c2csc3cc(F)ccc23)CC1CCCc1ccccc1)C1CCCCC1 (stereo not drawn) [compound 827109],78.6
3,CCN(C(=O)CCCN1CCN(c2csc3cc(F)ccc23)CC1CCCc1ccccc1)C1CCCCC1 (stereo not drawn) [compound 827110],208
4,O=C(CCCN1CCN(c2csc3cc(F)ccc23)CC1CCCc1ccccc1)N(CCO)C1CCCCC1 (stereo not drawn) [compound 827111],143
5,C[C@H]1CC[C@H](NC(=O)[C@@H]2C[C@H]2CN2CCN(CCc3ccccc3)CC2)CC1 [compound 827198],161
6,C[C@H]1CC[C@H](NC(=O)[C@@H]2C[C@H]2CN2CCN(Cc3ccc4c(c3)OCO4)CC2)CC1 [compound 827201],126
7,CC[C@H]1CC[C@H](NC(=O)[C@@H]2C[C@H]2CN2CCCN(c3ccc(C)cn3)CC2)CC1 [compound 827732],10.5
8,CC[C@H]1CC[C@H](NC(=O)[C@@H]2C[C@H]2CN2CCCN(c3ncccc3Cl)CC2)CC1 [compound 827733],1.19
9,CCC1CCC(NC(=O)C2CC2CN2CCCN(c3ccccn3)CC2)CC1 (stereo not drawn) [compound 827800],19.7

# Now from value to compound:
row,Ki [nM],SMILES
1,2.35,CC1CCC(NC(=O)C2CC2CN2CCN(c3ccc(F)cc3)CC2)CC1 (stereo not drawn) [compound 827196]
2,15.8,C[C@H]1CC[C@H](NC(=O)[C@@H]2C[C@H]2CN2CCN(c3cccc4cccnc34)CC2)CC1 [compound 827253]
3,19.5,Cc1ccc(N2CCCN(C[C@@H]3C[C@H]3C(=O)N[C@H]3CC[C@H](C)CC3)CC2)nc1 [compound 827731]

# Same assay, conditions: Table 2 part the 10th table; read-out: d3Ki
row,SMILES,Ki [nM]
1,CCOC(=O)C1CCN(C(=O)CCCN2CCN(c3csc4cc(F)ccc34)CC2CCCc2ccccc2)CC1 (stereo not drawn) [compound 827112],126
2,O=C(CCCN1CCN(c2csc3cc(F)ccc23)CC1CCCc1ccccc1)N1CCC(O)CC1 (stereo not drawn) [compound 827113],95
3,CC1CCCCN1C(=O)CCCN1CCN(c2csc3cc(F)ccc23)CC1CCCc1ccccc1 (stereo not drawn) [compound 827114],120

# Same assay, conditions: read-out: D3 Ki
row,SMILES,Ki [nM]
1,CC(C)(C)OC(=O)N1CCN(C[C@@H]2C[C@H]2C(=O)N[C@H]2CC[C@H](C)CC2)CC1 [compound 827184],237
2,CC[C@H]1CC[C@H](NC(=O)[C@@H]2C[C@H]2CN2CCN(c3cnccn3)CC2)CC1 [compound 827226],16.1
3,CC[C@H]1CC[C@H](NC(=O)[C@@H]2C[C@H]2CN2CCN(c3cccc(C(F)(F)F)c3)CC2)CC1 [compound 827229],1.71
4,O=C([C@@H]1C[C@H]1CN1CCC(c2noc3ccsc23)CC1)N1CCOCC1 [compound 829461],306
5,CN(CCc1ccccn1)C(=O)C1CC1CN1CCC(c2noc3ccsc23)CC1 (stereo not drawn) [compound 829593],350
6,CCC1CCC(NC(=O)C2CC2CN2CCCN(c3ccc4c(C#N)n[nH]c4n3)CC2)CC1 (stereo not drawn) [compound 830122],67.6
7,O=C(NCCCN1CCOCC1)[C@@H]1C[C@H]1CN1CCC(c2noc3ccsc23)CC1 [compound 831046],15.5
8,CN(C)CCCNC(=O)[C@@H]1C[C@H]1CN1CCC(c2noc3ccsc23)CC1 [compound 831048],11.3
9,O=C(NCCCc1ccncc1)[C@@H]1C[C@H]1CN1CCC(c2noc3ccsc23)CC1 [compound 831197],4.17
10,O=C(NCCCn1cccn1)[C@@H]1C[C@H]1CN1CCC(c2noc3ccsc23)CC1 [compound 831273],68.6

# Same assay, conditions: read-out: d3Ki
row,SMILES,Ki [nM]
1,C[C@H]1CC[C@H](NC(=O)[C@@H]2C[C@H]2CN2CCN(c3ccc(C(F)(F)F)cc3Cl)CC2)CC1 [compound 827181],97.2
2,C[C@H]1CC[C@H](NC(=O)[C@@H]2C[C@H]2CN2CCN(c3ccc(C(F)(F)F)cn3)CC2)CC1 [compound 827182],73
3,C[C@H]1CC[C@H](NC(=O)[C@@H]2C[C@H]2CN2CCN(c3ncccc3C(F)(F)F)CC2)CC1 [compound 827183],3.29
4,C[C@H]1CC[C@H](NC(=O)[C@@H]2C[C@H]2CN2CCN(c3cnccn3)CC2)CC1 [compound 827187],10.6
5,C[C@H]1CC[C@H](NC(=O)[C@@H]2C[C@H]2CN2CCN(c3ccc(Cl)c(C(F)(F)F)c3)CC2)CC1 [compound 827199],4.34
6,CC[C@H]1CC[C@H](NC(=O)[C@@H]2C[C@H]2CN2CCN(c3cccc(Cl)c3)CC2)CC1 [compound 827212],1.2
7,CC[C@H]1CC[C@H](NC(=O)[C@@H]2C[C@H]2CN2CCN(c3ccc(C)cc3)CC2)CC1 [compound 827213],11.1
8,CC[C@H]1CC[C@H](NC(=O)[C@@H]2C[C@H]2CN2CCN(c3ccccn3)CC2)CC1 [compound 827214],6.13
9,CCOc1ccccc1N1CCN(C[C@@H]2C[C@H]2C(=O)N[C@H]2CC[C@H](CC)CC2)CC1 [compound 827215],0.229
10,CC[C@H]1CC[C@H](NC(=O)[C@@H]2C[C@H]2CN2CCN(c3ccccc3Cl)CC2)CC1 [compound 827216],2.16
11,CC[C@H]1CC[C@H](NC(=O)[C@@H]2C[C@H]2CN2CCN(c3ccccc3OC)CC2)CC1 [compound 827218],1.22
12,CC[C@H]1CC[C@H](NC(=O)[C@@H]2C[C@H]2CN2CCN(c3cccc(C)c3)CC2)CC1 [compound 827219],2.63
13,CC[C@H]1CC[C@H](NC(=O)[C@@H]2C[C@H]2CN2CCN(c3ccc(C(F)(F)F)cn3)CC2)CC1 [compound 827221],99.2
14,CC[C@H]1CC[C@H](NC(=O)[C@@H]2C[C@H]2CN2CCN(c3cnccn3)CC2)CC1 [compound 827226],16.1
15,CC[C@H]1CC[C@H](NC(=O)[C@@H]2C[C@H]2CN2CCN(C(=O)c3ccco3)CC2)CC1 [compound 827228],62
16,CC[C@H]1CC[C@H](NC(=O)[C@@H]2C[C@H]2CN2CCN(c3cccc(C(F)(F)F)c3)CC2)CC1 [compound 827229],1.71
17,CC[C@H]1CC[C@H](NC(=O)[C@@H]2C[C@H]2CN2CCN(c3ccccc3)CC2)CC1 [compound 827230],2.09
18,CC[C@H]1CC[C@H](NC(=O)[C@@H]2C[C@H]2CN2CCN(c3ccc(OC)cc3)CC2)CC1 [compound 827233],27.7
19,CC[C@H]1CC[C@H](NC(=O)[C@@H]2C[C@H]2CN2CCN(c3cccc(OC)c3)CC2)CC1 [compound 827234],3.15
20,CC[C@H]1CC[C@H](NC(=O)[C@@H]2C[C@H]2CN2CCN(c3ccc(F)cc3)CC2)CC1 [compound 827235],4.49
21,CC[C@H]1CC[C@H](NC(=O)[C@@H]2C[C@H]2CN2CCN(c3ncccn3)CC2)CC1 [compound 827236],12.9
22,CC[C@H]1CC[C@H](NC(=O)[C@@H]2C[C@H]2CN2CCN(c3ccc(Cl)c(C(F)(F)F)c3)CC2)CC1 [compound 827238],2.48
23,CC[C@H]1CC[C@H](NC(=O)[C@@H]2C[C@H]2CN2CCN(c3ccc([N+](=O)[O-])cc3)CC2)CC1 [compound 827244],197
24,CC[C@H]1CC[C@H](NC(=O)[C@@H]2C[C@H]2CN2CCN(c3ccc(C(C)=O)cc3)CC2)CC1 [compound 827245],43
25,CC[C@H]1CC[C@H](NC(=O)[C@@H]2C[C@H]2CN2CCN(c3ccc(Cl)c(Cl)c3)CC2)CC1 [compound 828393],3.45

# Results, then the compound that gave them:
row,Ki [nM],SMILES
1,2.78,C[C@H]1CC[C@H](NC(=O)[C@@H]2C[C@H]2CN2CCN(c3cccc(Cl)c3)CC2)CC1 [compound 827173]
2,8.7,Cc1ccc(N2CCN(C[C@@H]3C[C@H]3C(=O)N[C@H]3CC[C@H](C)CC3)CC2)cc1 [compound 827174]
3,4,C[C@H]1CC[C@H](NC(=O)[C@@H]2C[C@H]2CN2CCN(c3ccccn3)CC2)CC1 [compound 827175]
4,1.18,CCOc1ccccc1N1CCN(C[C@@H]2C[C@H]2C(=O)N[C@H]2CC[C@H](C)CC2)CC1 [compound 827176]
5,1,C[C@H]1CC[C@H](NC(=O)[C@@H]2C[C@H]2CN2CCN(c3ccccc3Cl)CC2)CC1 [compound 827177]
6,12.4,C[C@H]1CC[C@H](NC(=O)[C@@H]2C[C@H]2CN2CCN(c3ccc(Cl)cc3)CC2)CC1 [compound 827178]
7,1.04,COc1ccccc1N1CCN(C[C@@H]2C[C@H]2C(=O)N[C@H]2CC[C@H](C)CC2)CC1 [compound 827179]
8,2.47,Cc1cccc(N2CCN(C[C@@H]3C[C@H]3C(=O)N[C@H]3CC[C@H](C)CC3)CC2)c1 [compound 827180]
9,4.89,C[C@H]1CC[C@H](NC(=O)[C@@H]2C[C@H]2CN2CCN(c3ccc(Cl)c(Cl)c3)CC2)CC1 [compound 827185]
10,8.21,Cc1ccc(C)c(N2CCN(C[C@@H]3C[C@H]3C(=O)N[C@H]3CC[C@H](C)CC3)CC2)c1 [compound 827186]
11,126,C[C@H]1CC[C@H](NC(=O)[C@@H]2C[C@H]2CN2CCN(c3ccco3)CC2)CC1 [compound 827189]
12,2.42,C[C@H]1CC[C@H](NC(=O)[C@@H]2C[C@H]2CN2CCN(c3cccc(C(F)(F)F)c3)CC2)CC1 [compound 827190]
13,0.724,C[C@H]1CC[C@H](NC(=O)[C@@H]2C[C@H]2CN2CCN(c3ccccc3)CC2)CC1 [compound 827191]
14,40.6,Cc1ccc(N2CCN(C[C@@H]3C[C@H]3C(=O)N[C@H]3CC[C@H](C)CC3)CC2)c(C)c1 [compound 827193]
15,24.4,COc1ccc(N2CCN(C[C@@H]3C[C@H]3C(=O)N[C@H]3CC[C@H](C)CC3)CC2)cc1 [compound 827194]
16,8.18,COc1cccc(N2CCN(C[C@@H]3C[C@H]3C(=O)N[C@H]3CC[C@H](C)CC3)CC2)c1 [compound 827195]
17,27.6,CC1CCC(NC(=O)C2CC2CN2CCN(c3ncccn3)CC2)CC1 (stereo not drawn) [compound 827197]
18,119,Cc1cccc(C)c1N1CCN(C[C@@H]2C[C@H]2C(=O)N[C@H]2CC[C@H](C)CC2)CC1 [compound 827200]
19,200,C[C@H]1CC[C@H](NC(=O)[C@@H]2C[C@H]2CN2CCN(c3ccc([N+](=O)[O-])cc3)CC2)CC1 [compound 827205]
20,59.7,CC(=O)c1ccc(N2CCN(C[C@@H]3C[C@H]3C(=O)N[C@H]3CC[C@H](C)CC3)CC2)cc1 [compound 827206]
